Laboratory results reported in patent publication US9555038B2, “Heterocycle-substituted tetracyclic compounds and methods of use thereof for the treatment of viral diseases” (Merck Sharp & Dohme Corp., priority 2013, dated 2017).
Read-outs that look alike come from different tables or passages of the source.

How the values were obtained:
HCV replicon 2B = experiment: Cell-based HCV Replicon Assay A, replicon 2B
Method in brief: (§1)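 Readout: replicon RNA by real-time RT-PCR, normalised to co-amplified cyclophilin and quantified against replicon total-RNA standard curves. Cells (2000/well) treated 3 days in medium with 5% FBS and 0.5% DMSO, compound in 10 serial dilutions from starting concentrations of 333.3 nM to 1.667 nM.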

HCV replicon 1AY93H = experiment: Cell-based HCV Replicon Assay A, replicon 1AY93H
Method in brief: as §1

HCV replicon 1AQ30D = experiment: Cell-based HCV Replicon Assay B, replicon 1AQ30D; conditions: Hepatitis C virus, read-out: 1A Q30D IC50 (nM), replicon 1AQ30D
Method in brief: (§2)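 EC50 defined as the drug concentration giving a CT increase of 1 above projected baseline, from real-time RT-PCR of replicon RNA using genotype-specific primers and probes. Cells were seeded in 5% FBS, dosed after 24 h and incubated 3 days before lysis.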

HCV replicon 1A = experiment: Cell-based HCV Replicon Assay A, replicon 1A
Method in brief: as §1

HCV replicon 1B = experiment: Cell-based HCV Replicon Assay B, replicon 1B
Method in brief: as §2

[1] = read-out: 1A Y93H IC50, replicon 1AY93H
[2] = Hepatitis C virus, read-out: 2B IC50 (nM), replicon 2B
[3] = Hepatitis C virus, read-out: 1A Y93H IC50 (nM), replicon 1AY93H

SMILES | IC50 (HCV replicon 2B; read-out: 2B IC50, replicon 2B) [nM] | IC50 (HCV replicon 1AY93H; [1]) [nM] | IC50 (HCV replicon 1AQ30D) [nM] | IC50 (HCV replicon 1A) [pM] | IC50 (HCV replicon 1B; Hepatitis C virus) [pM] | IC50 (HCV replicon 1A; Hepatitis C virus) [pM] | IC50 (HCV replicon 2B; [2]) [nM] | IC50 (HCV replicon 1AY93H; [3]) [nM] | IC50 (HCV replicon 1B) [pM]
CCCc1ncc(C2Oc3cc(-c4cnc([C@@H]5CCCN5C(=O)[C@@H](NC(=O)OC)C(C)C)[nH]4)cc(C)c3-c3cc4cc(-c5cnc([C@@H]6C[C@H]7C[C@H]7N6C(=O)[C@@H](NC(=O)OC)C(C)C)[nH]5)ccc4n32)s1 (single isomer, unassigned) [Compound 206] | 0.03 | 0.023 | 0.83 | 7 | 4 | – | – | – | –
COC(=O)N[C@H](C(=O)N1CCC[C@H]1c1ncc(-c2cc(C)c3c(c2)OC(c2cnc(C4CC4)s2)n2c-3cc3cc(-c4cnc([C@@H]5C[C@H]6C[C@H]6N5C(=O)[C@@H](NC(=O)OC)C(C)(C)F)[nH]4)ccc32)[nH]1)C(C)C (single isomer, unassigned) [Compound 208] | 0.011 | 0.0243 | 0.268 | – | 3 | 2.8 | – | – | –
COC(=O)N[C@H](C(=O)N1CCC[C@H]1c1ncc(-c2cc(C)c3c(c2)OC(c2cnc(C4CCC4)s2)n2c-3cc3cc(-c4cnc([C@@H]5C[C@H]6C[C@H]6N5C(=O)[C@@H](NC(=O)OC)C(C)(C)F)[nH]4)ccc32)[nH]1)C(C)C (single isomer, unassigned) [Compound 210] | – | – | 0.216 | – | 2 | 4.9 | 0.006 | 0.0163 | –
COC(=O)NC(C(=O)N1CCC[C@H]1c1ncc(-c2ccc3c(c2)cc2n3C(c3cnc(C4CC4)s3)Oc3cc(-c4cnc([C@@H]5CCCN5C(=O)[C@@H](NC(=O)OC)C(C)C)[nH]4)cc(C)c3-2)[nH]1)C1C[C@@H](C)O[C@@H](C)C1 (single isomer, unassigned) [Compound 212] | – | – | 0.499 | – | 8 | 6.8 | 0.007 | 0.0354 | –
COC(=O)NC(C(=O)N1CCC[C@H]1c1ncc(-c2ccc3c(c2)cc2n3C(c3cnc(C4CC4)s3)Oc3cc(-c4cnc([C@@H]5CCCN5C(=O)[C@@H](NC(=O)OC)C(C)C)[nH]4)cc(C)c3-2)[nH]1)C1C[C@@H](C)O[C@H](C)C1 (single isomer, unassigned) [Compound 213] | – | – | 0.126 | – | 7 | 7.8 | 0.005 | 0.0252 | –
COC(=O)NC(C(=O)N1CCC[C@H]1c1ncc(-c2ccc3c(c2)cc2n3C(c3cnc(C4CC4)s3)Oc3cc(-c4cnc([C@@H]5CCCN5C(=O)[C@@H](NC(=O)OC)C(C)C)[nH]4)cc(C)c3-2)[nH]1)C1CCOC(C)(C)C1 (single isomer, unassigned) [Compound 214] | – | – | 0.44 | – | 8 | 2.7 | 0.004 | 0.02 | –
COC(=O)NC(C(=O)N1[C@@H]2C[C@@H]2C[C@H]1c1ncc(-c2ccc3c(c2)cc2n3C(c3cnc(C4CC4)s3)Oc3cc(-c4cnc([C@@H]5CCCN5C(=O)[C@@H](NC(=O)OC)C(C)C)[nH]4)cc(C)c3-2)[nH]1)C1C[C@@H](C)O[C@@H](C)C1 (single isomer, unassigned) [Compound 217] | 0.011 | 0.0085 | 0.241 | 3.2 | – | – | – | – | 5
COC(=O)NC(C(=O)N1CCC[C@H]1c1ncc(-c2ccc3c(c2)cc2n3C(c3cnc(C4CCC4)s3)Oc3cc(-c4cnc([C@@H]5CCCN5C(=O)[C@@H](NC(=O)OC)C(C)C)[nH]4)cc(C)c3-2)[nH]1)C1C[C@@H](C)O[C@@H](C)C1 (single isomer, unassigned) [Compound 219] | 0.003 | 0.013 | 0.096 | 2.7 | 4 | – | – | – | –
COC(=O)NC(C(=O)N1CCC[C@H]1c1ncc(-c2ccc3c(c2)cc2n3C(c3cnc(C4CCC4)s3)Oc3cc(-c4cnc([C@@H]5CCCN5C(=O)[C@@H](NC(=O)OC)C(C)C)[nH]4)cc(C)c3-2)[nH]1)C1CCOC(C)(C)C1 (single isomer, unassigned) [Compound 221] | – | – | 0.39 | – | 8 | 7 | 0.006 | 0.06 | –
COC(=O)NC(C(=O)N1[C@@H]2C[C@@H]2C[C@H]1c1ncc(-c2ccc3c(c2)cc2n3C(c3cnc(C4CCC4)s3)Oc3cc(-c4cnc([C@@H]5CCCN5C(=O)[C@@H](NC(=O)OC)C(C)C)[nH]4)cc(C)c3-2)[nH]1)C1C[C@@H](C)O[C@@H](C)C1 (single isomer, unassigned) [Compound 222] | – | – | 0.044 | – | 6 | 2.7 | 0.007 | 0.0059 | –
